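Results reflect a 48-hour exposure of cells in 96-well plates to compound at five concentrations. GI50 = concentration required for 50% inhibition of growth.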 Calls of active or inactive are those of the source. Cut-off read from the data, not from the text of the source: active = GI50 up to about 1.1 µM and inactive = higher.
What was measured:
Experiment in all cases: NCI-60 cell line screen, 48 h
[1] = test system: NCI-H226
[2] = test system: SN12C
[3] = test system: DMS-273
[4] = test system: SK-MEL-5
[5] = test system: HOP-18
[6] = test system: 786-0
[7] = test system: KM-20L2
[8] = test system: HOP-92
[9] = test system: K562
[10] = test system: CAKI-1
[11] = test system: SW-620
[12] = test system: NCI-H522
[13] = test system: SF-268
[14] = test system: A498
[15] = test system: LXFL 529
[16] = test system: SK-MEL-28
[17] = test system: M19-MEL
[18] = test system: M14
[19] = test system: SF-539
[20] = test system: HT-29
[21] = test system: OVCAR-5
[22] = test system: ACHN
[23] = test system: SK-OV-3
[24] = test system: HCT-15
[25] = test system: NCI-H23
[26] = test system: KM12
[27] = test system: TK-10
[28] = test system: A549
[29] = test system: LOX IMVI
[30] = test system: OVCAR-4
[31] = test system: SNB-75
[32] = test system: EKVX
[33] = test system: RPMI-8226
[34] = test system: OVCAR-3
[35] = test system: DLD-1
[36] = test system: UACC-257
[37] = test system: NCI-H460
[38] = test system: Malme-3M
[39] = test system: RXF 393
[40] = test system: UACC-62
[41] = test system: SK-MEL-2
[42] = test system: U-251
[43] = test system: MOLT-4
[44] = test system: COLO 205
[45] = test system: IGROV-1
[46] = test system: UO-31
[47] = test system: XF498
[48] = test system: OVCAR-8
[49] = test system: SNB-78
[50] = test system: CCRF-CEM
[51] = test system: SNB-19
[52] = test system: DMS-114
[53] = test system: HCT-116
[54] = test system: SF-295
[55] = test system: HL-60
[56] = test system: RXF 631
[57] = test system: HOP-62
[58] = test system: SR

Cc1ccc(NC(=O)c2nc(S)nc(N)c2-c2ccccc2C)cc1C
GI50 [1]: > 100 µM (inactive)
GI50 [2]: > 100 µM (inactive)
GI50 [3]: > 100 µM (inactive)
GI50 [4]: > 100 µM (inactive)
GI50 [5]: > 100 µM (inactive)
GI50 [6]: > 100 µM (inactive)
GI50 [7]: > 100 µM (inactive)
GI50 [8]: > 100 µM (inactive)
GI50 [9]: > 100 µM (inactive)
GI50 [10]: > 100 µM (inactive)
GI50 [11]: > 100 µM (inactive)
GI50 [12]: > 100 µM (inactive)
GI50 [13]: > 100 µM (inactive)
GI50 [14]: > 100 µM (inactive)
GI50 [15]: > 100 µM (inactive)
GI50 [16]: > 100 µM (inactive)
GI50 [17]: > 100 µM (inactive)
GI50 [18]: > 100 µM (inactive)
GI50 [19]: > 100 µM (inactive)
GI50 [20]: > 100 µM (inactive)
GI50 [21]: > 100 µM (inactive)
GI50 [22]: > 100 µM (inactive)
GI50 [23]: > 100 µM (inactive)
GI50 [24]: > 100 µM
GI50 [25]: > 100 µM (inactive)
GI50 [26]: > 100 µM (inactive)
GI50 [27]: > 100 µM (inactive)
GI50 [28]: > 100 µM (inactive)
GI50 [29]: > 100 µM (inactive)
GI50 [30]: > 10 µM (inactive)
GI50 [31]: > 100 µM (inactive)
GI50 [32]: > 100 µM (inactive)
GI50 [33]: > 100 µM (inactive)
GI50 [34]: > 100 µM (inactive)
GI50 [35]: > 100 µM (inactive)
GI50 [36]: > 100 µM (inactive)
GI50 [37]: > 100 µM (inactive)
GI50 [38]: > 100 µM (inactive)
GI50 [39]: > 100 µM (inactive)
GI50 [40]: > 100 µM (inactive)
GI50 [41]: > 100 µM (inactive)
GI50 [42]: > 100 µM (inactive)
GI50 [43]: > 100 µM (inactive)
GI50 [44]: > 100 µM (inactive)
GI50 [45]: > 100 µM (inactive)
GI50 [46]: > 100 µM (inactive)
GI50 [47]: > 100 µM (inactive)
GI50 [48]: > 100 µM (inactive)
GI50 [49]: > 100 µM (inactive)
GI50 [50]: > 100 µM (inactive)
GI50 [51]: > 100 µM (inactive)
GI50 [52]: > 100 µM (inactive)
GI50 [53]: > 100 µM (inactive)

N#CC1([N+](=O)[O-])C=C1c1ccccc1 (centres undefined)
GI50 [1]: 95.3 µM (inactive)
GI50 [2]: > 100 µM (inactive)
GI50 [3]: > 100 µM (inactive)
GI50 [4]: 57.3 µM (inactive)
GI50 [54]: > 100 µM (inactive)
GI50 [6]: 28.8 µM (inactive)
GI50 [7]: > 100 µM (inactive)
GI50 [9]: 23.2 µM (inactive)
GI50 [10]: 82.4 µM (inactive)
GI50 [11]: 19.9 µM (inactive)
GI50 [12]: 23.4 µM (inactive)
GI50 [13]: 53.7 µM (inactive)
GI50 [15]: 32.1 µM (inactive)
GI50 [17]: 56.1 µM (inactive)
GI50 [55]: 23.3 µM (inactive)
GI50 [18]: 42.6 µM (inactive)
GI50 [19]: > 100 µM (inactive)
GI50 [20]: 35.9 µM (inactive)
GI50 [21]: > 100 µM (inactive)
GI50 [22]: 38.6 µM (inactive)
GI50 [23]: > 100 µM (inactive)
GI50 [24]: 36.7 µM
GI50 [25]: > 100 µM (inactive)
GI50 [26]: > 100 µM (inactive)
GI50 [56]: > 100 µM (inactive)
GI50 [27]: > 100 µM (inactive)
GI50 [28]: > 100 µM (inactive)
GI50 [29]: 28.6 µM (inactive)
GI50 [30]: > 100 µM (inactive)
GI50 [57]: > 100 µM (inactive)
GI50 [32]: > 100 µM (inactive)
GI50 [33]: 19.5 µM (inactive)
GI50 [34]: > 100 µM (inactive)
GI50 [35]: 8.81 µM (inactive)
GI50 [36]: 78 µM (inactive)
GI50 [37]: 51.2 µM (inactive)
GI50 [38]: 63 µM (inactive)
GI50 [58]: 25.2 µM (inactive)
GI50 [40]: 20.9 µM (inactive)
GI50 [41]: > 100 µM (inactive)
GI50 [42]: > 100 µM (inactive)
GI50 [43]: 22.7 µM (inactive)
GI50 [44]: > 100 µM (inactive)
GI50 [45]: > 100 µM (inactive)
GI50 [46]: > 100 µM (inactive)
GI50 [48]: > 100 µM (inactive)
GI50 [49]: 81.5 µM (inactive)
GI50 [50]: 21.1 µM (inactive)
GI50 [51]: > 100 µM (inactive)
GI50 [52]: 48.6 µM (inactive)
GI50 [53]: 32.4 µM (inactive)
